Measurements taken from patent publication US10064865B2, “Composition comprising phosphodiesterase type 5 inhibitor for inhibiting apoptosis of nerve cells” (ARIBIO INC., priority 2012, dated 2018).
Marks after values point to notes of the source that are not given here.

Assays:
[1] = tested on: neuron apoptosis-operated rats; test: Example 1 body swing test; format: in vivo, Sprague-Dawley (SD) rats
Protocol: Sensorimotor function was evaluated by use of limb placing de Ryck M et al., Stroke. 20:1383-90(1989)) and body swing (Borlongan and Sanberg, J Neurosci. 15:5372-8(1995)) tests. These tests were performed one day before neuron apoptosis to obtain a baseline and then at 1, 3, 7, 14, 21 and 28 days after neuron apoptosis. Behavioral tests were done before drug administration on days when both were scheduled. The investigator performing the surgery and behavioral assessments was blinded to treatment assignment.
Body swing tests: Animals were held approximately 2 cm from the base of its tail and elevated to an inch above a surface of a table. A swing was recorded whenever the rat moved its head out of the vertical axis to either side by more than 10° from vertical and then returned to the vertical position. Thirty total swings were counted per animal. After right-hemisphere neuron apoptosis, animals tend to swing to the contralateral (left) side. Thus, the numbers and percentages of body swings to the ipsilateral (right) side were recorded as a measure of recovery, with an intact animal scoring.
(§1) All data were expressed as mean±standard deviation (S.D.) of ten rats. Multiple comparison tests for different dose groups were conducted. Variance homogeneity was examined using the Levene test (Levene A, Clin Otalary, 1981; 6:145-51). […] Statistical analyses were conducted using SPSS (Release 14K, SPSS Inc., USA; Ludbrook, Clin Exp Pharmacol Physiol, 1997; 24:294-6). In addition, the percent changes between neuron apoptosis control and mirodenafil treated rats were calculated to help the understanding of the efficacy of test material as follow equation 3. Percentage changes as compared with neuron apoptosis control (%)=[((Data of mirodenafil treated groups−Data of neuron apoptosis control)/Data of neuron apoptosis control)×100] [EQUATION 3]

[2] = tested on: PARP; test: Example 1 immunohistochemistry: PARP-immunoreactive cells; format: in vivo, Sprague-Dawley (SD) rats; conditions: for Numbers of neurons: PARP+: 29 days after neuron apoptosis
Protocol: The induction of neuron apoptosis was carried out by damaging the right hemisphere of the brain of animals. Specifically, animals were anesthetized with 2 or 3% isoflurane in the mixture of 70% N2O and 28.5% O2, and were maintained with 1 to 1.5% isoflurane in the mixture of 70% N2O and 28.5% O2. After that the temporalis muscle was bisected and reflected through an incision made midway between the eye and the eardrum canal. The proximal MCA was exposed through a subtemporal craniectomy by microdental drills without removing the zygomatic arch and without transecting the facial nerve. […] Mortality was less than 5%. For sham control, all procedures were performed in the same way, with the exception of the occlusion of the MCA.
After deparraffinized of cerebral histological paraffin sections, citrate buffer antigen (epitope) retrieval pretreatment were conducted as previously (Shi S R et al., J Histochem Cytochem. 41:1599-604(1993)). Briefly, pre-heat water bath with staining dish containing 10 mM citrate buffers (pH 6.0) until temperature reaches 95-100° C. Immerse slides in the staining dish and place the lid loosely on the staining dish. Incubate for 20 minutes and turn off the water bath. Place the staining dish at room temperature and allow the slides to cool for 20 minutes. After epitope retrivals, sections were immunostained as following steps:
Incubate sections with methanol and 0.3% H2O2 for 30 minutes for blocking endogenous peroxidase activity at room temperature and rinse in 0.01M phosphate buffered saline (PBS; pH 7.2) for 3 times;
Incubate sections with normal horse serum blocking solution (Vector Lab. Inc., Burlingame, USA. Dilution 1:100) for 1 hour to block non-specific binding of immunoglobulin at room temperature in humidity chamber, and rinse in 0.01M PBS for 3 times;
Incubate sections with primary antisera for overnight at 4° C. in humidity chamber and rinse in 0.01M PBS for 3 times;
Incubate sections with biotinylated universal secondary antibody (Vector Lab., Dilution 1:50) for 1 hour at room temperature in humidity chamber and rinse in 0.01M PBS for 3 times;
Incubate sections with ABC reagents (Vectastain Elite ABC Kit, Vector Lab., Dilution 1:50) for 1 hour at room temperature in humidity chamber and rinse in 0.01M PBS for 3 times;
Incubate sections in Peroxidae substrate kit (Vector Lab.) for 5 min at room temperature and rinse in 0.01M PBS for 3 times;
Counterstain with Mayer's hematoxylin solution and rinse in running tap water for 30 minutes;
Dehydrate through 95% ethanol for 2 minutes, 100% ethanol for 3 times and Clear in xylene for two times; and
Coverslip with permanent mounting medium and observed under light microscope (Nikkon, Japan).
Histomorphometry: The nerve cells occupied by over 10% of immunoreactivities, the density, of each antiserum, caspase-3 and PARP were regarded as immunoreactive. In the present study, the numbers of each caspase-3 and PARP-immunoreactive cells among mm^2 of ipsilateral peri-infarct/defect cerebral cortex were measured using a computer-assisted image analysis program, respectively.
as §1

[3] = 0.5 mg/kg group, day 1 after operation (before drug administration)
[4] = 0.5 mg/kg group, day −1 (baseline)
[5] = 0.5 mg/kg s.c. once a day, day 3 after operation
[6] = 0.5 mg/kg s.c. once a day, day 7 after operation
[7] = 0.5 mg/kg s.c. once a day, day 14 after operation
[8] = 0.5 mg/kg s.c. once a day, day 21 after operation
[9] = 0.5 mg/kg s.c. once a day, day 28 after operation
[10] = 1 mg/kg group, day 1 after operation (before drug administration)
[11] = 1 mg/kg group, day −1 (baseline)
[12] = 1 mg/kg s.c. once a day, day 3 after operation
[13] = 1 mg/kg s.c. once a day, day 7 after operation
[14] = 1 mg/kg s.c. once a day, day 14 after operation
[15] = 1 mg/kg s.c. once a day, day 21 after operation
[16] = 1 mg/kg s.c. once a day, day 28 after operation
[17] = 2 mg/kg group, day 1 after operation (before drug administration)
[18] = 2 mg/kg group, day −1 (baseline)
[19] = 2 mg/kg s.c. once a day, day 3 after operation
[20] = 2 mg/kg s.c. once a day, day 7 after operation
[21] = 2 mg/kg s.c. once a day, day 14 after operation
[22] = 2 mg/kg s.c. once a day, day 21 after operation
[23] = 2 mg/kg s.c. once a day, day 28 after operation

With `CCCOc1ccc(S(=O)(=O)N2CCN(CCO)CC2)cc1-c1nc2c(CCC)cn(CC)c2c(=O)[nH]1` [Mirodenafil, mirodenafil] the “The numbers of body swings to the ipsilateral right sides/total 30 body swings” value [1, 3] was 1.40 ± 1.17^a, the “The percentages of body swings to the ipsilateral right sides/total 30 body swings” value [1, 3] was 4.67 ± 3.91^a % and the “The numbers of body swings to the ipsilateral right sides/total 30 body swings” value [1, 4] was 15.10 ± 0.99. The “The percentages of body swings to the ipsilateral right sides/total 30 body swings” value [1, 4] was 50.33 ± 3.31%, the “The numbers of body swings to the ipsilateral right sides/total 30 body swings” value [1, 5] was 2.10 ± 1.37^a and the “The percentages of body swings to the ipsilateral right sides/total 30 body swings” value [1, 5] was 7.00 ± 4.57^a %. For the same molecule, the “The numbers of body swings to the ipsilateral right sides/total 30 body swings” value [1, 6] was 2.40 ± 1.26^a, the “The percentages of body swings to the ipsilateral right sides/total 30 body swings” value [1, 6] was 8.00 ± 4.22^a % and the “The numbers of body swings to the ipsilateral right sides/total 30 body swings” value [1, 7] was 4.20 ± 1.62^ac. For the same molecule, the “The percentages of body swings to the ipsilateral right sides/total 30 body swings” value [1, 7] was 14.00 ± 5.40^ac %, the “The numbers of body swings to the ipsilateral right sides/total 30 body swings” value [1, 8] was 5.40 ± 1.26^ab and the “The percentages of body swings to the ipsilateral right sides/total 30 body swings” value [1, 8] was 18.00 ± 4.22^ab %. The “The numbers of body swings to the ipsilateral right sides/total 30 body swings” value [1, 9] was 6.20 ± 1.99^ac, the “The percentages of body swings to the ipsilateral right sides/total 30 body swings” value [1, 9] was 20.67 ± 6.63^ac % and the “numbers and percentages of body swings to ipsilateral right sides, change as compared with neuron apoptosis control” value ([1]; 0.5 mg/kg, 3 days after surgery) was 16.67%. The “numbers and percentages of body swings to ipsilateral right sides, change as compared with neuron apoptosis control” value ([1]; 0.5 mg/kg, 7 days after surgery) was 9.09%, the “numbers and percentages of body swings to ipsilateral right sides, change as compared with neuron apoptosis control” value ([1]; 0.5 mg/kg, 14 days after surgery) was 44.83% and the “numbers and percentages of body swings to ipsilateral right sides, change as compared with neuron apoptosis control” value ([1]; 0.5 mg/kg, 21 days after surgery) was 50.00%. For the same molecule, the “numbers and percentages of body swings to ipsilateral right sides, change as compared with neuron apoptosis control” value ([1]; 0.5 mg/kg, 28 days after surgery) was 44.19%, the “The numbers of body swings to the ipsilateral right sides/total 30 body swings” value [1, 10] was 1.30 ± 0.95^a and the “The percentages of body swings to the ipsilateral right sides/total 30 body swings” value [1, 10] was 4.33 ± 3.16^a %. For the same molecule, the “The numbers of body swings to the ipsilateral right sides/total 30 body swings” value [1, 11] was 15.10 ± 1.29, the “The percentages of body swings to the ipsilateral right sides/total 30 body swings” value [1, 11] was 50.33 ± 4.29% and the “The numbers of body swings to the ipsilateral right sides/total 30 body swings” value [1, 12] was 2.70 ± 0.82^a. For the same molecule, the “The percentages of body swings to the ipsilateral right sides/total 30 body swings” value [1, 12] was 9.00 ± 2.74^a %, the “The numbers of body swings to the ipsilateral right sides/total 30 body swings” value [1, 13] was 3.10 ± 0.88^a and the “The percentages of body swings to the ipsilateral right sides/total 30 body swings” value [1, 13] was 10.33 ± 2.92^a %. The “The numbers of body swings to the ipsilateral right sides/total 30 body swings” value [1, 14] was 5.80 ± 1.23^ab, the “The percentages of body swings to the ipsilateral right sides/total 30 body swings” value [1, 14] was 19.33 ± 4.10^ab % and the “The numbers of body swings to the ipsilateral right sides/total 30 body swings” value [1, 15] was 7.30 ± 1.89^ab. For the same molecule, the “The percentages of body swings to the ipsilateral right sides/total 30 body swings” value [1, 15] was 24.33 ± 6.30^ab %, the “The numbers of body swings to the ipsilateral right sides/total 30 body swings” value [1, 16] was 11.50 ± 1.58^ab and the “The percentages of body swings to the ipsilateral right sides/total 30 body swings” value [1, 16] was 38.33 ± 5.27^ab %. The “numbers and percentages of body swings to ipsilateral right sides, change as compared with neuron apoptosis control” value ([1]; 1 mg/kg, 3 days after surgery) was 50.00%, the “numbers and percentages of body swings to ipsilateral right sides, change as compared with neuron apoptosis control” value ([1]; 1 mg/kg, 7 days after surgery) was 40.91% and the “numbers and percentages of body swings to ipsilateral right sides, change as compared with neuron apoptosis control” value ([1]; 1 mg/kg, 14 days after surgery) was 100.00%. For the same molecule, the “numbers and percentages of body swings to ipsilateral right sides, change as compared with neuron apoptosis control” value ([1]; 1 mg/kg, 21 days after surgery) was 102.78%, the “numbers and percentages of body swings to ipsilateral right sides, change as compared with neuron apoptosis control” value ([1]; 1 mg/kg, 28 days after surgery) was 167.44% and the “The numbers of body swings to the ipsilateral right sides/total 30 body swings” value [1, 17] was 1.20 ± 0.63^a. The “The percentages of body swings to the ipsilateral right sides/total 30 body swings” value [1, 17] was 4.00 ± 2.11^a %, the “The numbers of body swings to the ipsilateral right sides/total 30 body swings” value [1, 18] was 15.00 ± 1.15 and the “The percentages of body swings to the ipsilateral right sides/total 30 body swings” value [1, 18] was 50.00 ± 3.85%. For the same molecule, the “The numbers of body swings to the ipsilateral right sides/total 30 body swings” value [1, 19] was 3.00 ± 0.82^ac, the “The percentages of body swings to the ipsilateral right sides/total 30 body swings” value [1, 19] was 10.00 ± 2.72^ac % and the “The numbers of body swings to the ipsilateral right sides/total 30 body swings” value [1, 20] was 3.20 ± 0.63^ac. For the same molecule, the “The percentages of body swings to the ipsilateral right sides/total 30 body swings” value [1, 20] was 10.67 ± 2.11^ac %, the “The numbers of body swings to the ipsilateral right sides/total 30 body swings” value [1, 21] was 6.00 ± 1.56^ab and the “The percentages of body swings to the ipsilateral right sides/total 30 body swings” value [1, 21] was 20.00 ± 5.21^ab %. The “The numbers of body swings to the ipsilateral right sides/total 30 body swings” value [1, 22] was 8.80 ± 1.23^ab, the “The percentages of body swings to the ipsilateral right sides/total 30 body swings” value [1, 22] was 29.33 ± 4.10^ab % and the “The numbers of body swings to the ipsilateral right sides/total 30 body swings” value [1, 23] was 11.10 ± 1.91^ab. For the same molecule, the “The percentages of body swings to the ipsilateral right sides/total 30 body swings” value [1, 23] was 37.00 ± 6.37^ab %, the “numbers and percentages of body swings to ipsilateral right sides, change as compared with neuron apoptosis control” value ([1]; 2 mg/kg, 3 days after surgery) was 66.67% and the “numbers and percentages of body swings to ipsilateral right sides, change as compared with neuron apoptosis control” value ([1]; 2 mg/kg, 7 days after surgery) was 45.45%. The “numbers and percentages of body swings to ipsilateral right sides, change as compared with neuron apoptosis control” value ([1]; 2 mg/kg, 14 days after surgery) was 106.90%, the “numbers and percentages of body swings to ipsilateral right sides, change as compared with neuron apoptosis control” value ([1]; 2 mg/kg, 21 days after surgery) was 144.44% and the “numbers and percentages of body swings to ipsilateral right sides, change as compared with neuron apoptosis control” value ([1]; 2 mg/kg, 28 days after surgery) was 158.14%. The “numbers of PARP-immunoreactive neurons, change as compared with neuron apoptosis control” value ([2]; 0.5 mg/kg) was −37.58%, the “Numbers of neurons: PARP+” value ([2]; 0.5 mg/kg s.c. once a day) was 47.50 ± 9.44^ab cells/mm^2 of cerebral cortex and the “numbers of PARP-immunoreactive neurons, change as compared with neuron apoptosis control” value ([2]; 1 mg/kg) was −76.74%. For the same molecule, the “Numbers of neurons: PARP+” value ([2]; 1 mg/kg s.c. once a day) was 17.70 ± 2.00^ab cells/mm^2 of cerebral cortex, the “numbers of PARP-immunoreactive neurons, change as compared with neuron apoptosis control” value ([2]; 2 mg/kg) was −78.32% and the “Numbers of neurons: PARP+” value ([2]; 2 mg/kg s.c. once a day) was 16.50 ± 3.81^ab cells/mm^2 of cerebral cortex.
